In patent US20030108556A1 (priority 2001, published 2003):
Entries after “also recorded” stand apart in the source; their conditions may differ. Ends that are not written are not given here.

Tests used:
[1] = target: T1, PA63 heptamer (Bacillus anthracis, UniProt P13423); experiment: biochemical; format: binding
[2] = target: T1, PA63 heptamer

T1 sequence (P13423 197-764 limits assumed): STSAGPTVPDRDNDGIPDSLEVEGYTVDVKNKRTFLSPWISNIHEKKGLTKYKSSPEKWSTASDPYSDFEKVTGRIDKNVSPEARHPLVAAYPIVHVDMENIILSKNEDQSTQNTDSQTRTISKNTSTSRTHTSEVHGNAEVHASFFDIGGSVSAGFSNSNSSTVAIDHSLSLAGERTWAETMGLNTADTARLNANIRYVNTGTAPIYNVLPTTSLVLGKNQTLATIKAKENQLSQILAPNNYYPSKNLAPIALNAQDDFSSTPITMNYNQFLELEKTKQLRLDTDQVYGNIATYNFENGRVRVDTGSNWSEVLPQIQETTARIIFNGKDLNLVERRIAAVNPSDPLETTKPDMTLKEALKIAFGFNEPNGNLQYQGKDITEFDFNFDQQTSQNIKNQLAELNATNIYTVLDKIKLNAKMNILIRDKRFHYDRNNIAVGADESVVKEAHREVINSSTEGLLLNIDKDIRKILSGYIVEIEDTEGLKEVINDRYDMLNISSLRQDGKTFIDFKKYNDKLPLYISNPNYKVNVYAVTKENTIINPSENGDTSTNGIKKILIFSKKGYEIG

Substance	effect on binding of radiolabeled LFN to PA63 on CHO cells [1]	properties of phage compared with P1 and P2 [2]	further results
FDLPFTMSTPTP [reference compound]	no effect		
CWSSFAWYC		showed the same properties as P1 and P2	
HTSTYWWLD	all but one, HTSTYWWLD, could prevent; also recorded: could not compete		
HYTYWWL		showed the same properties as P1 and P2	
HTSTYWWLDGAP			IC50 [1]: ~150 µM
